The subject of experiment [1] is Jurkat cells. Description: Flow cytometry of cell surface labeling after click with biotin azide probe 6 and fluorescein-conjugated streptavidin. It is filed as cell-based, human. How it is done:
In another exemplary implementation, a method for labeling fucosylated glycoconjugates at the cell surface is disclosed. In one aspect, Jurkat cells are grown in the presence of derivatized alkynyl Fuc 1. After treatment, cells are subjected to CuAAC (click chemistry) to couple biotinylated azido probe 6 with any alkynyl Fuc-bearing glycoconjugates, and stained with fluorescein-conjugated streptavidin.
Labeling alkynyl Fuc-bearing cell surface glycoconjugates is illustrated in FIGS. 1A, 1B, 1C and 1D. FIGS. 1A, 1B, 1C and 1D show analysis of cells tagged with Fuc analogs analyzed by monitoring fluorescence intensity with flow cytometry after labeling with a biotin azide probe 6 and staining cells with fluorescein-conjugated streptavidin. […] Without being bound by theory, incorporation of the derivatized Fuc analogs into fucosylated glycoconjugates likely occurs via the Fuc salvage pathway.
It is now disclosed in one exemplary implementation of the disclosure that treating cells with derivatized alkynyl ManNAc 4 results in derivatized alkyne-bearing sialyl glycoconjugates. In one aspect of the method, cells are treated with 4 at various concentrations for one to 3 days. Modified sugar analogs and probes used in this disclosure are shown in Scheme 1. Tagging of the cell surface glycoconjugates by derivatized alkynyl ManNAc is illustrated in FIGS. 2A, 2B, 2C and 2D. FIGS. 2A, 2B, 2C and 2D show analysis of cells labeled with ManNAc analogs analyzed by monitoring fluorescence intensity with flow cytometry after clicking on the biotin azide probe 6 and staining cells with fluorescein-conjugated streptavidin. […] Compared with the MFI of controls, there was significant labeling on cells treated with derivatized alkynyl ManNAc 4, even at concentrations as low as 3 micromolar (15-fold increase). […] The optimal concentration of 4 for tagging sialyl glycoconjugates falls between 25 and 50 micromolar.
Jurkat cells were cultivated (2×10^6/10 ml) in RPMI medium 1640 supplemented with 10% FCS and various concentrations of peracetylated alkynyl sugars 1, 2, or 4 or native sugars 3 or 5, for 1-3 days at 37° C. Cells were then harvested, washed with 0.1% FCS/PBS, and resuspended (10^6 cells) in 100 microliters of click reaction solution (0.1 mM biotin probe 6 or fluorogenic probe 7/0.1 mM Tris-thiazoleamine catalyst/0.1 mM CuSO4/0.5 mM sodium ascorbate, in PBS). The reaction was incubated at room temperature for 30 min, and then the cells were washed twice with 0.1% FCS/PBS. Cells treated with biotin probe 6 were subsequently stained with fluorescein-conjugated streptavidin (0.5 microgram per sample in 50 microliters of 1% FCS/PBS) for 30 min at 4° C., and washed three times with 1% FCS/PBS. Data were acquired by BD LSR II with FACSDiva software, and were analyzed by CellQuestPro software (BD Biosciences). Detection of fluorescent adduct with probe 7 was monitored with a 408 nm laser and a 440/40 bandpass filter for excitation and emission, respectively.
Background: In flow cytometry, cells or beads pass a laser one at a time.

Experiment [2] deals with Jurkat cells. Description: Flow cytometry of cell surface labeling with fluorogenic coumarin probe 7. It is filed as cell-based, human. The following applies: 200 micromolar Fuc analogs or 25 micromolar ManNAc analogs, 3 days. The text has this:
FIGS. 3A and 3B show tagging of cell surface glycans by derivatized alkynyl sugar analogs and subsequent labeling with probe 3-azido-7-hydroxycoumarin 7. Shown is flow cytometry analysis of Jurkat cells tagged with 200 micromolar derivatized alkynyl Fuc 1 shown in FIG. 3A or 25 micromolar alkynyl-derivatized ManNAc 4 shown in FIG. 3B for 3 days. The fluorescence intensity was detected after labeling with a coumarin probe 7. Filled histogram, cells treated with control sugar analog 3 or 5; open histogram, cell treated with alkynyl-derivatized sugar 1 or 4.
Recently, another click-activated azido-derivatized fluorescent probe, based on coumarin, was reported in the literature. In one aspect of the disclosure, the fluorogenic probe, 3-azido-7-hydroxycoumarin 7, is used as the coupling partner for alkynyl tags on labeled glycoconjugates.
Jurkat cells were cultivated (2×10^6/10 ml) in RPMI medium 1640 supplemented with 10% FCS and various concentrations of peracetylated alkynyl sugars 1, 2, or 4 or native sugars 3 or 5, for 1-3 days at 37° C. […] Data were acquired by BD LSR II with FACSDiva software, and were analyzed by CellQuestPro software (BD Biosciences). Detection of fluorescent adduct with probe 7 was monitored with a 408 nm laser and a 440/40 bandpass filter for excitation and emission, respectively.

Another experiment has as its system cell extracts. Description: Labeling and detection of glycoconjugates in cell extracts (SDS/PAGE, Western blot). It is filed as cell-based. The following applies: 200 micromolar Fuc or 25 micromolar ManNAc analogs, 3 days. The text has this:
Because the herein disclosed labeling system enables the identification of cellular glycoconjugates, it can also serve well in glyco-proteomic applications aimed at discovering unknown glycosylated targets for diagnostic and therapeutic purposes. […] Soluble lysate fractions are labeled with biotin probe 6, fluorogenic probe 7, or a standard azido-derivatized rhodamine probe used in proteomics before separating proteins by SDS/PAGE. […] Positive fluorescent signal was also detected in alkynyl positive protein lysate when labeled with fluorogenic 3-azido-7-hydroxycoumarin 7 and rhodamine probes (FIG. 6B and FIG. 11). […] Moreover, further processing, including a streptavidin/avidin enrichment or gel slice purification, will allow for comparative identification by proteomic mass spectrometry techniques of unknown glycoconjugates expressed at different cell status, for instance, un-differentiated verses differentiated cells, or normal verses cancer cells.
Cells were seeded at 3×10^6/8 ml per 10-cm dish and treated with control and test sugars (200 micromolar Fuc 3 vs. alkynyl derivatized Fuc 1, or 25 micromolar ManNAc 5 vs. alkynyl derivatized ManNAc 2) in growth medium at 37° C. […] Signal was developed with SuperSignal Chemiluminescent Substrate and detected by exposure to x-ray film. […] Rhodamine gels were analyzed.
For orientation: Immunoblotting shows a protein as a band on a membrane.

For the next experiment, the system named is Hep3B cells. The experiment is described as follows: Pulse-chase time-lapse microscopy of fucosylated glycans. It is filed as cell-based, human. The settings on record: 30 minute pulse, biotin/streptavidin-FITC. How it is done: Additional cellular structures are visualized using alternative labeling systems (e.g., WGA lectin used to visualize Golgi apparatus, and Hoechst used to visualize nucleus).
Pulse-chased MOE experiments entail growing cells of interest to log-phase levels and then exposing them to the sugar analogs in the growth medium, as prescribed by standard MOE, but only for a 30 minute pulse, before replenishing with fresh medium devoid of sugars. Post sugar-pulse, the cells are grown for various lengths of time before analysis.
Cells of interest may be grown to log phase and then presented with various derivatized sugars for a limited period of time; for example, 30 minutes. After the limited period of time, the cells are no longer presented with the various sugars. The cells with glycoconjugates incorporating various tagged sugars may then be visualized over time through secondary detection and/or microscopy in relation to various intracellular and intercellular structures, in order to collect data on the trafficking and relative location of tagged and labeled glycoconjugates.

On to “1,2,3,4-tetraacetyl alkynyl fucose [alkynyl Fuc 1]”, for which, in the experiment on Jurkat cells [1] (200 micromolar), the “saturation of incorporation, incubation time” value is given as “one”. The “mean fluorescence intensity (MFI) compared with Fuc treated cells” value in the experiment on Jurkat cells [1] (200 micromolar, biotin probe 6/fluorescein-streptavidin) came out at 3 fold. In addition, the “dose dependency of glycan tagging” value with Jurkat cells [1] (3 days) is recorded as “dose dependent increase of fluorescence signal”. Further, the “fluorescence intensity / cell surface signal compared with control sugar-treated cells” value with Jurkat cells [1] (biotin probe 6/fluorescein-streptavidin) is listed as “increased fluorescence intensity”. Further, in the experiment with Jurkat cells [2], the “fluorescent labeling after reacting with 3-azido-7-hydroxycoumarin probe” value was “significant fluorescent labeling”. Besides, the “labeling signal in proteins by Western blot or fluorescence” value in the experiment on cell extracts is “specific biotin-labeling signals”. Moreover, the “signal for fucosylated glycans co-localized with Golgi marker after pulse” value with Hep3B cells is reported as “co-localized yellow signal as early as 2 h”.

Values taken from patent US10317393B2, “Alkynyl sugar analogs for labeling and visualization of glycoconjugates in cells” (Academia Sinica, priority 2007, dated 2019).
